In patent publication US20130096170A1 (priority 2011, published 2013):
Where two headings read alike, the source gives them in different places.

Assays:
[1] = test system: neonates ≥28 to ≤44 weeks gestational age
[2] = test system: pediatric subjects 2 to <17 years; conditions: for Drug-related TEAE: Bradycardia / Drug-related TEAE: Hypertension / Drug-related TEAE: Hypotension / Drug-related TEAE: Sedation / Number of Drug-related TEAE / Subjects with at least 1 Drug-Related TEAE / Drug-related TEAE: Chills: safety population
[3] = age Group I, dose level 2 (Dex 0.1), N = 6
[4] = Group I, Dose Level 1, LD 0.25/CD 0.2 μg/kg/hr, N = 8
[5] = Group I, Dose Level 2, LD 0.50/CD 0.4 μg/kg/hr, N = 6
[6] = Group I, Dose Level 3, LD 1.00/CD 0.7 μg/kg/hr, N = 6
[7] = Group I, Dose Level 4, LD 1.00/CD 2.00 μg/kg/hr, N = 6
[8] = Group II, Dose Level 1, LD 0.25/CD 0.2 μg/kg/hr, N = 8
[9] = Group II, Dose Level 2, LD 0.50/CD 0.4 μg/kg/hr, N = 8
[10] = Group II, Dose Level 3, LD 1.00/CD 0.7 μg/kg/hr, N = 9
[11] = Group II, Dose Level 4, LD 1.00/CD 2.00 μg/kg/hr, N = 8

With `Cc1cccc([C@H](C)c2cnc[nH]2)c1C` [dexmedetomidine] the “TEAE: Anger, subjects” value [1, 3] was 1 (16.7%), the “TEAE: Blood bilirubin unconjugated increased, subjects” value [1, 3] was 1 (16.7%) and the “TEAE: Bradycardia, subjects” value [1, 3] was 1 (16.7%). The “TEAE: Cardiac disorders, subjects” value [1, 3] was 1 (16.7%), the “TEAE: Cardio-respiratory arrest, subjects” value [1, 3] was 1 (16.7%) and the “TEAE: General disorders and administration site conditions, subjects” value [1, 3] was 2 (33.3%). The “TEAE: Haematuria, subjects” value [1, 3] was 1 (16.7%), the “TEAE: Hepatobiliary disorders, subjects” value [1, 3] was 1 (16.7%) and the “TEAE: Hyperbilirubinaemia, subjects” value [1, 3] was 1 (16.7%). The “TEAE: Hyperglycaemia, subjects” value [1, 3] was 1 (16.7%), the “TEAE: Hypocalcaemia, subjects” value [1, 3] was 1 (16.7%) and the “TEAE: Hypoproteinaemia, subjects” value [1, 3] was 1 (16.7%). The “TEAE: Infections and infestations, subjects” value [1, 3] was 1 (16.7%), the “TEAE: Infusion site extravasation, subjects” value [1, 3] was 1 (16.7%) and the “TEAE: Investigations, subjects” value [1, 3] was 2 (33.3%). For the same compound, the “TEAE: Oedema, subjects” value [1, 3] was 1 (16.7%), the “TEAE: Oxygen saturation decreased, subjects” value [1, 3] was 1 (16.7%) and the “TEAE: Psychiatric disorders, subjects” value [1, 3] was 1 (16.7%). For the same compound, the “TEAE: Renal and urinary disorders, subjects” value [1, 3] was 1 (16.7%), the “TEAE: Sepsis, subjects” value [1, 3] was 1 (16.7%) and the “TEAE: Metabolism and nutrition disorders, subjects” value ([1]; human, in vivo) was 3 (50.0%). For the same compound, the “TEAE: Number of Events” value ([1]; human, in vivo) was 18, the “patients with adverse events” value ([1]; human, in vivo) was 67% and the “subjects with treatment-emergent adverse effects assessed as related to treatment” value ([1]; human, in vivo) was 2 subjects. For the same compound, the safety and tolerability ([1]; in vivo) was “safe and well tolerated”, the “severe treatment-emergent adverse effects” value ([1]; in vivo) was “no severe” and the “Drug-related TEAE: Bradycardia” value [2, 4] was 0 n (%). The “Drug-related TEAE: Hypertension” value [2, 4] was 0 n (%), the “Drug-related TEAE: Hypotension” value [2, 4] was 0 n (%) and the “Drug-related TEAE: Sedation” value [2, 4] was 0 n (%). The “Number of Drug-related TEAE” value [2, 4] was 0, the “Subjects with at least 1 Drug-Related TEAE” value [2, 4] was 0 n (%) and the “Drug-related TEAE: Bradycardia” value [2, 5] was 0 n (%). The “Drug-related TEAE: Hypertension” value [2, 5] was 0 n (%), the “Drug-related TEAE: Hypotension” value [2, 5] was 0 n (%) and the “Drug-related TEAE: Sedation” value [2, 5] was 0 n (%). For the same compound, the “Number of Drug-related TEAE” value [2, 5] was 0, the “Subjects with at least 1 Drug-Related TEAE” value [2, 5] was 0 n (%) and the “Drug-related TEAE: Bradycardia” value [2, 6] was 1 (16.7) n (%). For the same compound, the “Drug-related TEAE: Hypertension” value [2, 6] was 1 (16.7) n (%), the “Drug-related TEAE: Hypotension” value [2, 6] was 0 n (%) and the “Drug-related TEAE: Sedation” value [2, 6] was 0 n (%). For the same compound, the “Number of Drug-related TEAE” value [2, 6] was 2, the “Subjects with at least 1 Drug-Related TEAE” value [2, 6] was 1 (16.7) n (%) and the “Drug-related TEAE: Bradycardia” value [2, 7] was 1 (16.7) n (%). The “Drug-related TEAE: Hypertension” value [2, 7] was 0 n (%), the “Drug-related TEAE: Hypotension” value [2, 7] was 1 (16.7) n (%) and the “Drug-related TEAE: Sedation” value [2, 7] was 2 (33.3) n (%). The “Number of Drug-related TEAE” value [2, 7] was 4, the “Subjects with at least 1 Drug-Related TEAE” value [2, 7] was 4 (66.7) n (%) and the “Drug-related TEAE: Bradycardia” value [2, 8] was 0 n (%). For the same compound, the “Drug-related TEAE: Chills” value [2, 8] was 0 n (%), the “Drug-related TEAE: Hypertension” value [2, 8] was 0 n (%) and the “Drug-related TEAE: Sedation” value [2, 8] was 0 n (%). For the same compound, the “Number of Drug-related TEAE” value [2, 8] was 0, the “Subjects with at least 1 Drug-Related TEAE” value [2, 8] was 0 n (%) and the “Drug-related TEAE: Bradycardia” value [2, 9] was 0 n (%). The “Drug-related TEAE: Chills” value [2, 9] was 0 n (%), the “Drug-related TEAE: Hypertension” value [2, 9] was 0 n (%) and the “Drug-related TEAE: Sedation” value [2, 9] was 0 n (%). The “Number of Drug-related TEAE” value [2, 9] was 0, the “Subjects with at least 1 Drug-Related TEAE” value [2, 9] was 0 n (%) and the “Drug-related TEAE: Bradycardia” value [2, 10] was 1 (11.1) n (%). The “Drug-related TEAE: Chills” value [2, 10] was 1 (11.1) n (%), the “Drug-related TEAE: Hypertension” value [2, 10] was 1 (11.1) n (%) and the “Drug-related TEAE: Sedation” value [2, 10] was 0 n (%). The “Number of Drug-related TEAE” value [2, 10] was 3, the “Subjects with at least 1 Drug-Related TEAE” value [2, 10] was 2 (22.2) n (%) and the “Drug-related TEAE: Bradycardia” value [2, 11] was 0 n (%). The “Drug-related TEAE: Chills” value [2, 11] was 0 n (%), the “Drug-related TEAE: Hypertension” value [2, 11] was 3 (37.5) n (%) and the “Drug-related TEAE: Sedation” value [2, 11] was 1 (12.5) n (%). The “Number of Drug-related TEAE” value [2, 11] was 4, the “Subjects with at least 1 Drug-Related TEAE” value [2, 11] was 4 (50.0) n (%) and the “treatment-related TEAE: chills” value ([2]; human, in vivo) was 1 subjects.
